Data taken from patent US12172989B2, “Histone acetyltransferase (HAT) inhibitor and use thereof” (SHANGHAI INSTITUTE OF MATERIA MEDICA, CHINESE ACADEMY OF …, priority 2018, dated 2024).

Experiments:
[1] = tested on: Human castration resistant prostate cancer cell line 22Rv1; assay: Cell growth inhibition experiment (CellTiter-Glo), 22Rv1; assay type: cell-based; settings: 22Rv1 cells treated with the compound for 5 days
Description: (§1) Human castration resistant prostate cancer cell line 22Rv1 and LNCaP clone FGC (22Rv1 cell line was from ATCC, CRL-2505, LNCaP clone FGC cell line was purchased from Cell Bank of the Chinese Academy of Sciences) were cultured with RPMI 1640 medium (Gibco, available from Life Technologies Corporation, 22400-089) containing 10% fetal bovine serum (Gibco, available from Life Technologies, 10099-141) and 1% antibiotics (penicillin and streptomycin, available from Life Technologies Corporation, 10378016) in a CO2 cell incubator (37° C., 5% CO2). In the cell growth inhibition experiment, 22Rv1 and LNCaP clone FGC cells in exponential growth phase were seeded on a 96-well plate (purchased from Corning Company, 3599) with a volume of 150 μL/well and a cell density of 1,500 cells/well. After seeded, the plate was placed in a CO2 incubator to incubate overnight to allow the cells to adhere. On the next day, 50 μL of a compound at different concentrations diluted in 3-fold gradient or DMSO were added in a 96-well plate containing the cells. The final concentration of the compound ranges from 0.3 to 10000 nM, and the final concentration of DMSO is 0.05% as control group. The cells were treated by the compound for 5 days. Cell viability was measured using CellTiter-Glo reagent (purchased from Promega, G7572): the cell treated with the compound for 5 days was added with CellTiter-Glo reagent at 40 μL/well, incubated at room temperature for 10 min, transferred to a white 96-well plate (OptiPlate-96, purchased from PerkinElmer, 605299) by 70 μL. Subsequently, the luminescence signal was detected using a multifunctional microplate reader EnVision (purchased from PerkinElmer) at a wavelength of 400-700 nm. The data was analyzed by using GraphPad Prism 5.0 software to obtain IC50.

[2] = tested on: human mantle cell lymphoma (MCL) cell line MAVER-1; assay: Cell growth inhibition experiment (CellTiter-Glo), MAVER-1; assay type: cell-based; settings: MAVER-1 cells treated with the compound for 5 days
Description: The human mantle cell lymphoma (MCL) cell line MAVER-1 (from ATCC, CRL-3008) was cultured with RPMI 1640 medium (Gibco, available from Life Technologies Corporation, 22400-089) containing […] (Gibco, available from Life Technologies, 10099-141) and 1% antibiotics (penicillin and streptomycin, available from Life Technologies Corporation, 10378016) in a CO2 cell incubator (37° C., 5% CO2). In the cell growth inhibition experiment, MAVER-1 cells in exponential growth phase were seeded on a 96-well plate (purchased from Corning Company, 3599) in a volume of 100 μL/well and a cell density of 1*10E5 cells/well. After seeded, the plate was placed in a CO2 incubator to culture for 1 h. 100 μL of a compound at different concentrations diluted in 3-fold gradient or DMSO were added in a 96-well plate containing the cells. The final concentration of the compound ranges from 0.3 to 10000 nM, and the final concentration of DMSO is 0.05% as control group. The cells were treated with the compound for 5 days. Cell viability was measured using CellTiter-Glo reagent (purchased from Promega, G7572): the cells treated with the compound for 5 days was added with CellTiter-Glo reagent at 20 μL/well, incubated at room temperature for 10 min, transferred to a white 96-well plate (OptiPlate-96, purchased from PerkinElmer, 605299) by 80 μL. Subsequently, the luminescence signal was detected by using a multifunctional microplate reader EnVision (purchased from PerkinElmer) at a wavelength of 400-700 nm. The data was analyzed by using GraphPad Prism 5.0 software to obtain IC50.

[3] = tested on: Human castration resistant prostate cancer cell line LNCaP clone FGC; assay: Cell growth inhibition experiment (CellTiter-Glo), LNCaP clone FGC; assay type: cell-based; settings: LNCaP clone FGC cells treated with the compound for 5 days
Description: as §1

[4] = target: T1, histone acetyltransferase p300 (Homo sapiens, UniProt Q09472); assay: Histone acetyltransferase (p300) activity assay (radioisotope, [3H]-Ac-CoA); assay type: biochemical; settings: p300 0.05 nM; histone peptide 600 nM, [3H]-Ac-CoA 250 nM; 60 min at room temperature; read-out: Inhibition rate IC50
T1 construct: purchased BPS Corporation 50071
T1 sequence (Q09472 1284-1673 limits assumed): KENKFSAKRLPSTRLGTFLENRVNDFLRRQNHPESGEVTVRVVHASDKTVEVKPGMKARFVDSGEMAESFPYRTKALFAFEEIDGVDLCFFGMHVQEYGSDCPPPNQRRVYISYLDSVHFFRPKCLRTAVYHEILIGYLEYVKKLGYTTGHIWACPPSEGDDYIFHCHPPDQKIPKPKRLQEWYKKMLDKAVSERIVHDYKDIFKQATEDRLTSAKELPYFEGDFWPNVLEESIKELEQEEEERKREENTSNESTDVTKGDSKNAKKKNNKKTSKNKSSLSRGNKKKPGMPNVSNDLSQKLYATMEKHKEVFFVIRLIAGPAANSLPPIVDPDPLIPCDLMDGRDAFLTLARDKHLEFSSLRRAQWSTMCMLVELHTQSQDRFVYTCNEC
Description: The reaction was finally terminated with Ac-CoA (Sigma, Cat. No. A2056) without isotope labeling. If the activity of the acetyltransferase p300 was inhibited, the isotope signal cannot be detected on the substrate polypeptide. Therefore, the inhibitory activity of the compound against the acetyltransferase p300 was evaluated.
In the enzyme reaction system, 200 nL of a diluted compound (100% DMSO) was first transferred to a test plate using Echo, where the final concentration of the compound in the enzyme reaction system ranges from 0.25 to 5000 nM. Then 10 μL/well of p300 protein (final concentration of 0.05 nM) was transferred therein, and incubated with the compound for 15 min at room temperature. Then 10 μL/well of a substrate mixture (final concentrations of histone peptide and [^3H]—Ac-CoA were 600 nM and 250 nM, respectively) was added to start the enzyme-catalyzed reaction, and incubated at room temperature for 60 min. Then 10 µL/well of a 250 μM cold Ac-CoA solution was added to stop the reaction. Finally 25 μL/well of the reaction solution was transferred to a 384-well Flashplate (Perkin Elmer, Cat. No. SMP410A001PK), and incubated at room temperature for 1 h. The resultant was washed with double distilled water+0.1% Tween-20 three times. The signal value was read by using Microbeta. The data was analyzed by using GraphPad Prism 5.0 software to obtain IC50.

SMILES | IC50 [1] | IC50 [2] | IC50 [3] | IC50 ([1]; Homo sapiens, 120 h) | IC50 ([2]; Homo sapiens, Maver1, 120 h) | IC50 ([3]; Homo sapiens, 120 h) | IC50 [4]
CNC(=O)Nc1ccc2c(c1)CC[C@@]21OC(=O)N(CC(=O)N(Cc2ccc(F)cc2)[C@@H](C)C(F)(F)F)C1=O [Example A-485, reference compound] | 384 nM | 206 nM | 215 nM | – | – | – | –
CNC(=O)Nc1ccc2c(c1)CCC21OC(=O)N(CC(=O)N2Cc3ccccc3CCC2C)C1=O (centres unmarked) [SYY-B003] | – | – | – | 258 nM | 112 nM | 164 nM | –
CNC(=O)Nc1ccc2c(c1)CC[C@]21OC(=O)N(CC(=O)N2Cc3ccccc3CC[C@H]2C)C1=O [SYY-B015-1] | – | – | – | 345 nM | 104 nM | 168 nM | 12 nM
CNC(=O)Nc1ccc2c(c1)CC[C@@]21OC(=O)N(CC(=O)N2Cc3ccccc3CC[C@H]2C)C1=O [SYY-B015-2] | – | – | – | 33 nM | 18 nM | 15 nM | 3.7 nM
CNC(=O)Nc1ccc2c(c1)CC[C@]21OC(=O)N(CC(=O)N2Cc3ccccc3CC[C@H]2C2CC2)C1=O [SYY-B018-1] | – | – | – | 88 nM | 49 nM | 73 nM | 3.3 nM
CNC(=O)Nc1ccc2c(c1)CC[C@@]21OC(=O)N(CC(=O)N2Cc3ccccc3CC[C@H]2C2CC2)C1=O [SYY-B018-2] | – | – | – | 5 nM | 6 nM | 6 nM | 0.67 nM
CNC(=O)Nc1ccc2c(c1)CC[C@]21OC(=O)N(CC(=O)N2Cc3ccccc3CC[C@H]2C(C)C)C1=O [SYY-B019-1] | – | – | – | 205 nM | 40 nM | 186 nM | 2.7 nM
CNC(=O)Nc1ccc2c(c1)CC[C@@]21OC(=O)N(CC(=O)N2Cc3ccccc3CC[C@H]2C(C)C)C1=O [SYY-B019-2] | – | – | – | 5 nM | 17 nM | 9 nM | 2 nM
CNC(=O)Nc1ccc2c(c1)CC[C@]21OC(=O)N(CC(=O)N2Cc3ccc(F)cc3CC[C@H]2C)C1=O [SYY-B021-1] | – | – | – | 107 nM | 32 nM | 63 nM | 3 nM
CNC(=O)Nc1ccc2c(c1)CC[C@@]21OC(=O)N(CC(=O)N2Cc3ccc(F)cc3CC[C@H]2C)C1=O [SYY-B021-2] | – | – | – | 24 nM | 22 nM | 13 nM | 3 nM
CCC[C@@H]1CCc2ccccc2CN1C(=O)CN1C(=O)O[C@]2(CCc3cc(NC(=O)NC)ccc32)C1=O [SYY-B023-1] | – | – | – | 50 nM | 23 nM | 65 nM | 4 nM
CCC[C@@H]1CCc2ccccc2CN1C(=O)CN1C(=O)O[C@@]2(CCc3cc(NC(=O)NC)ccc32)C1=O [SYY-B023-2] | – | – | – | 3 nM | 12 nM | 4 nM | 2 nM
CCC[C@H]1CCc2ccccc2CN1C(=O)CN1C(=O)O[C@@]2(CCc3cc(NC(=O)NC)ccc32)C1=O [SYY-B024-2] | – | – | – | 77 nM | 116 nM | 53 nM | 24 nM
CNC(=O)Nc1ccc2c(c1)CC[C@]21OC(=O)N(CC(=O)N2Cc3ccccc3CC[C@H]2C(F)(F)F)C1=O [SYY-B027-1] | – | – | – | 40 nM | – | 48 nM | 9.1 nM
CNC(=O)Nc1ccc2c(c1)CC[C@@]21OC(=O)N(CC(=O)N2Cc3cc(F)ccc3OC[C@H]2C2CC2)C1=O [SYY-B029-2] | – | – | – | – | 15 nM | 13 nM | 1.4 nM
CNC(=O)Nc1ccc2c(c1)CCC21NC(=O)N(CC(=O)N2Cc3ccc(F)cc3CC[C@H]2C2CC2)C1=O (some centres unmarked) [SYY-B033] | – | – | – | 127 nM | – | 78 nM | 4.8 nM
CC(C)(N)C(=O)Nc1ccc2c(c1)CC[C@]21OC(=O)N(CC(=O)N2Cc3ccc(F)cc3CC[C@H]2C2CC2)C1=O [SYY-B037-1] | – | – | – | 64 nM | – | 13 nM | 1.5 nM
CC(C)(N)C(=O)Nc1ccc2c(c1)CC[C@@]21OC(=O)N(CC(=O)N2Cc3ccc(F)cc3CC[C@H]2C2CC2)C1=O [SYY-B038-1] | – | – | – | 13 nM | – | 6 nM | 1 nM
NC1(C(=O)Nc2ccc3c(c2)CC[C@]32OC(=O)N(CC(=O)N3Cc4ccc(F)cc4CC[C@H]3C3CC3)C2=O)CCC1 [SYY-B039-1] | – | – | – | 74 nM | – | 52 nM | 1.9 nM
NC1(C(=O)Nc2ccc3c(c2)CC[C@@]32OC(=O)N(CC(=O)N3Cc4ccc(F)cc4CC[C@H]3C3CC3)C2=O)CCC1 [SYY-B039-2] | – | – | – | 36 nM | – | 15 nM | 1.2 nM
Cn1cc(-c2ccc3c(c2)CC[C@]32OC(=O)N(CC(=O)N3Cc4ccc(F)cc4CC[C@H]3C3CC3)C2=O)cn1 [SYY-B041-1] | – | – | – | < 100 nM | – | < 100 nM | 4.3 nM
Cn1cc(-c2ccc3c(c2)CC[C@@]32OC(=O)N(CC(=O)N3Cc4ccc(F)cc4CC[C@H]3C3CC3)C2=O)cn1 [SYY-B041-2] | – | – | – | < 100 nM | – | < 100 nM | 3.4 nM
